Assay results as given in patent publication US20240207327A1, “COMPOSITION INCLUDING PROPOLIS AND SORBUS COMMIXTA AS ACTIVE INGREDIENTS FOR ALLEVIATING AND TREATING INFLAMMATORY DISEASES AND ALLERGIC DISEASES” (Andong National University Industry-Academic Cooperation …, priority 2022, published 2024).

Legend:
[1] = system: RAW 264.7 cell line; experiment: Nitric oxide (NO) production assay in LPS-treated RAW 264.7 (Griess reagent); type: cell-based, mouse; conditions: for NO production rate compared with control / NO production, combined treatment / NO production compared to the control: LPS 100 ng/mL; for NO production rate compared with control / NO production compared to the control: independent treatment; for NO production rate compared with control: 10 μg/mL; for inhibitory effect on NO production (in words): LPS-induced RAW 264.7, independent treatment
Protocol: (§1) RAW 264.7 cell line, a mouse macrophage cell line was purchased from KCLB (Korean Cell Line Bank, Korea). After RAW 264.7 was added with 10% fetal bovine serum (FBS, GIBCO, USA) and 1% antibiotics-antimycotic (GIBCO, USA), the cell was subcultured in Dulbecco's modified Eagle's medium (DMEM, WELGENE, Korea) in a 37° C., 5% CO2 incubator (Thermo Fisher Inc., USA).
After RAW 264.7 cell line was independently treated with any one of the flavonoid componentsor Sorbus commixta extract, and was combinedly treated with any one of the flavonoid components and the Sorbus commixta extract, an evaluation of Nitric Oxide production (NO assay) was conducted to identify effects on NO secretion induced by LPS.
At this time, RAW 264.7 cells were seeded at 1×10^5 cells/well in 96-well plates and cultured in a 37° C., 5% CO2 incubator for 24 hours. Each cell was pretreated with samples by concentration (pinocembrin, quercetin, kaempferol, glangin, and chrysin at concentrations of 1, 2.5, 5, and 10 μg/mL, caffeic acid and p-Coumaric acid at concentrations of 2.5, 5, 10, and 25 μg/mL, and Sorbus commixta ethanol extract at concentrations of 25, 50, 100, and 250 ppm), respectively, and then the cells were treated with LPS (Sigma-Aldrich Inc, USA) to a final concentration of 100 ng/mL to induce the inflammatory response for 20 hours. After the induction of the inflammatory response, a 100 μL supernatant of a 96-well plate was added with a 100 μL Griess reagent (Sigma-Aldrich Inc., USA) at a concentration of 40 mg/mL (in water), and reacted in the dark for 15 minutes, and the optical density was measured at 540 nm using a Tecan infinite 200 microplate reader (Tecan Trading AG, Switzerland). A quantitative line was drawn using Sodium nitrite (Sigma-Aldrich Inc., USA), and each value of optical density was substituted to the quantitative line to determine the amount of produced Nitric Oxide (NO).
In the inflammatory response of macrophages induced by LPS treatment, the treatment effects of any one of the flavonoid components or Sorbus commixta ethanol extract on NO production were determined.

[2] = system: RBL-2H3 basophilic cell line; experiment: beta-Hexosaminidase release assay (degranulation by anti-DNP-IgE / DNP-BSA); type: cell-based, Rat; conditions: for degree of degranulation of RBL-2H3 cells (in words) / beta-Hexosaminidase released compared to the positive control: independent treatment; for beta-Hexosaminidase released compared to the positive control: 1 hour pretreatment
Protocol: Effects of quercetin, kaempferol, chrysin, and Sorbus commixta ethanolic extract on allergic response were determined by measuring the release of beta-Hexosaminidase through degranulation caused by the antibody-antigen binding in the RBL-2H3 basophilic cells. The RBL-2H3 basophilic cell line of Rat was purchased from ATCC (American Type Culture Collection, USA), and then it was added with a 10% fetal bovine serum and a 1% antibiotics-antimycotic in Dulbecco's modified Eagle's medium, and was subcultured in a 37° C., 5% CO2 incubator. A beta-Hexosaminidase release assay was carried out to figure out effects of independent treatment of any one of the flavonoid components or the Sorbus commixta ethanolic extract, and combined treatment of any one of the flavonoid components (quercetin, kaempferol, chrysin) with Sorbus commixta ethanolic extract on the release of beta-Hexosaminidase through the degranulation of RBL-2H3 basophilic cell line. The RBL-2H3 cells were seeded at 8×10^4 cells/well in the 96 well plates, and stabilized in a 37° C., 5% CO2 incubator for 3 hours, then treated with anti-DNP-IgE (Sigma-Aldrich Inc., USA) to a final concentration of 250 ng/mL for cell sensitization, and incubated for 24 hours. After culturing, the supernatant liquid was removed and washed twice with Siraganian buffer (NaCl 119 mM, KCl 5 mM, Glucose 5.6 mM, PIPES 25 mM, MgCl2, 0.4 mM, CaCl2 1 mM, BSA 0.1%, pH 7.2, Biosolution, Korea), and concentration-specific samples dissolved in Siraganian buffer were pretreated into the cells for 1 hour. After the pretreatment, the final concentration of DNP-BSA (Sigma-Aldrich Inc., USA) was treated to be at 150 ng/mL, and cultured for 1 hour to induce degranulation. After degranulation induction, 80 μL of supernatant and 20 μL of 10 mM 4-Nitrophenyl N-acetyl-β-D-glucosaminide (in 0.1 M citrate buffer, pH 4.5, Sigma-Aldrich Inc., USA) were reacted in the 96 well plate for 4 hours at a 37° C. incubator. After 4 hours, the reaction was terminated by adding 100 μL of 0.5 M sodium carbonate, and the optical density was measured at 405 nm using a Tecan infinite 200 microplate reader. First, RBL-2H3 cells' degranulation induced by antibody-antigen binding was determined when independently treated with any one of the flavonoid components or Sorbus commixta ethanolic extract. RBL-2H3 cells were sensitized with antibodies for one day, pretreated with different concentration levels of 3 selected flavonoid components, or Sorbus commixta ethanol extract for one hour, followed by additionally being treated with antigens. A group treated with neither the extract nor the antigen was a negative control, and a group independently treated with ethanol as the solvent for the sample and induced for degranulation only was a positive control. When RBL-2H3 cell degranulation is induced by antibody-antigen binding, beta-Hexosaminidase, an indicator of early response is released. On top of that, a substrate addition (P-NAG) leads to the degradation of the substrate and the suspension of the degradation reaction, resulting in a color change. In that case, the amount of beta-hexosaminidase may be determined by measuring the optical density, which may it possible to compare the degree of induced inhibition or induced activation of degranulation. The changes in the amount of beta-Hexosaminidase released by the combined treatment of the Sorbus commixta ethanolic extract with any one of the three selected active ingredients of the flavonoid components were intended to be determined. A group treated with neither the extract nor the antigen was a negative control, and a group independently treated with ethanol as the solvent for the sample and induced for degranulation only was a positive control.

[3] = system: RAW 264.7 cell line; experiment: MTT cell viability assay, RAW 264.7; type: cell-based; conditions: mouse, 24 h, 10 μg/mL
Protocol: as §1
A cell viability rate was analyzed by carrying out an MTT assay in order to determine the toxicity of the flavonoid components and Sorbus commixta ethanolic extract on the cell line treatment. The RAW 264.7 cell line was seeded 5×10^4 cells/well in a 96 well plate, and cultured in a 37° C., 5% CO2 incubator. After the culture, the flavonoid components and Sorbus commixta ethanolic extract were treated and additionally treated for the next 24 hours. After the additional culture, a 0.1 mg/mL MTT solution (Sigma-Aldrich Inc., USA) was dispensed in each well, the cells were cultured for 4 hours before the supernatant was removed. The resulting formazan was dissolved by seeding 100 μL of DMSO (Sigma-Aldrich Inc., USA) into each well, followed by orbital shaking (87.9 rpm) for 15 minutes, and optical density was measured at 540 nm using a Tecan infinite 200 microplate reader. The measured values of optical density were described as a percentage by substituting into the equation below. […]

[4] = flavonoid 1 μg/mL (first of series) combined with Sorbus commixta ethanol extract
[5] = flavonoid 2.5 μg/mL (second of series) combined with Sorbus commixta ethanol extract
[6] = flavonoid 5 μg/mL (third of series) combined with Sorbus commixta ethanol extract
[7] = flavonoid 10 μg/mL (fourth of series) combined with Sorbus commixta ethanol extract
[8] = 1 μg/mL (first of series 1, 2.5, 5, 10 μg/mL)

Molecule | NO production rate compared with control [1] | NO production, combined treatment [1, 4] | NO production, combined treatment [1, 5] | NO production, combined treatment [1, 6] | NO production, combined treatment [1, 7] | NO production compared to the control [1, 8] | NO production compared to the control ([1]; 2.5 μg/mL (second of series)) | NO production compared to the control ([1]; 5 μg/mL (third of series)) | inhibitory effect on NO production (in words) [1] | production rate of beta-Hexosaminidase compared to the control group ([2]; 0.5 μg/mL mixed with 25 ppm of Sorbus commixta ethanol extract) | degree of degranulation of RBL-2H3 cells (in words) [2] | beta-Hexosaminidase released compared to the positive control ([2]; 0.5 μg/mL) | cell viability rate [3] | production rate of beta-Hexosaminidase compared to the control group ([2]; 1 μg/mL mixed with 25 ppm of Sorbus commixta ethanol extract) | beta-Hexosaminidase released compared to the positive control ([2]; 1 μg/mL) | production rate of beta-Hexosaminidase compared to the control group ([2]; 2.5 μg/mL mixed with 25 ppm of Sorbus commixta ethanol extract)
O=C(O)/C=C/c1ccc(O)c(O)c1 [caffeic acid] | 97% |  |  |  |  |  |  |  |  |  |  |  |  |  |  | 
O=c1c(O)c(-c2ccc(O)c(O)c2)oc2cc(O)cc(O)c12 [quercetin] | 41% | 78% | 70% | 55% | 39% | 97% | 81% | 63% | highest inhibitory effect on NO production | 86.8% | decreased the degree of degranulation | 64% |  |  |  | 
O=C1C[C@@H](c2ccccc2)Oc2cc(O)cc(O)c21 [pinocembrin] | 90% |  |  |  |  |  |  |  |  |  |  |  | greater than 80% |  |  | 
O=c1cc(-c2ccccc2)oc2cc(O)cc(O)c12 [chrysin] | 10% | 72% | 55% | 38% | 9% | 89% | 74% | 43% |  |  |  |  |  | 95.9% | 83% | 
p-coumaric acid (4-Hydroxycinnamic acid) | 90% |  |  |  |  |  |  |  |  |  |  |  |  |  |  | 
O=c1c(O)c(-c2ccc(O)cc2)oc2cc(O)cc(O)c12 [kaempferol] | 42% | 75% | 71% | 60% | 39% | 92% | 85% | 66% | highest inhibitory effect on NO production |  | decreased the degree of degranulation | 85% |  |  |  | 79.8%
O=c1c(O)c(-c2ccccc2)oc2cc(O)cc(O)c12 [galangin] | 82% |  |  |  |  |  |  |  |  |  |  |  | greater than 80% |  |  | 
